What was measured:
Assay type in all cases: cell-based
M3 muscarinic receptor = target: T1, M3 muscarinic receptor (Homo sapiens, UniProt P20309); experiment: Functional mobilization of intracellular calcium (FLIPR) in CHO cells expressing M3; conditions: for EC50: CHO cells expressing M3, FLIPR calcium; for Emax: CHO, read-out: M3 Efficacy; for Emax / M3 Efficacy: 100% = maximum response obtained with the Carbachol control
T1 construct: expressed in transfected cells; host or cells: CHO (M3-CHO)
How it was run: (§1)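 Calcium flux is read on FLIPR over 60 sec at 488/540 nm in muscarinic-receptor CHO lines. Antagonist mode adds carbachol at EC80 after 15 min compound preincubation or with simultaneous co-application. Agonist mode adds compound alone. Cells carry Fluo-3 or Calcium 3 dye in probenecid-containing pH 7.4 buffer, 0.5% DMSO final.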

M4 muscarinic receptor = target: T2, M4 muscarinic receptor (Homo sapiens, UniProt P08173); experiment: Functional mobilization of intracellular calcium (FLIPR) in CHO cells expressing M4; conditions: for EC50: CHO cells expressing M4, FLIPR calcium; for Emax: CHO, read-out: M4 Efficacy; for Emax / M4 Efficacy: 100% = maximum response obtained with the Carbachol control
T2 construct: expressed in transfected cells; host or cells: CHO (M4-CHO)
T2 sequence (P08173 1-479): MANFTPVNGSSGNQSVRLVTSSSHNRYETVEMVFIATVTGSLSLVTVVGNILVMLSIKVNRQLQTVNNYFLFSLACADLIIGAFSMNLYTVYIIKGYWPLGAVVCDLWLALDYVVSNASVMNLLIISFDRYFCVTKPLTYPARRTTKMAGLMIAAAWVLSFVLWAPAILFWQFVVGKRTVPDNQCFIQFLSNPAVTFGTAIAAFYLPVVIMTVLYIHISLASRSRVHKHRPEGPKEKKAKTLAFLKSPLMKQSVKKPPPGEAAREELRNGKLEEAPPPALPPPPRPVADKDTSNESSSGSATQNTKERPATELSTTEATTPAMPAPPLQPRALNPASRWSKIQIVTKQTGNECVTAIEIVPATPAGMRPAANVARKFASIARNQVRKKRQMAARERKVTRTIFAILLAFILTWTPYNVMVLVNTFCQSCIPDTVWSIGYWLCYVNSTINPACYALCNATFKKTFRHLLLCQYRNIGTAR
How it was run: as §1

M2 muscarinic receptor = target: T3, M2 muscarinic receptor (Homo sapiens, UniProt P08172); experiment: Functional mobilization of intracellular calcium (FLIPR) in CHO cells expressing M2; conditions: for EC50: CHO cells expressing M2, FLIPR calcium; for Emax: CHO, read-out: M2 Efficacy; for Emax / M2 Efficacy: 100% = maximum response obtained with the Carbachol control
T3 construct: expressed in transfected cells; host or cells: CHO (M2-CHO)
T3 sequence (P08172 1-466): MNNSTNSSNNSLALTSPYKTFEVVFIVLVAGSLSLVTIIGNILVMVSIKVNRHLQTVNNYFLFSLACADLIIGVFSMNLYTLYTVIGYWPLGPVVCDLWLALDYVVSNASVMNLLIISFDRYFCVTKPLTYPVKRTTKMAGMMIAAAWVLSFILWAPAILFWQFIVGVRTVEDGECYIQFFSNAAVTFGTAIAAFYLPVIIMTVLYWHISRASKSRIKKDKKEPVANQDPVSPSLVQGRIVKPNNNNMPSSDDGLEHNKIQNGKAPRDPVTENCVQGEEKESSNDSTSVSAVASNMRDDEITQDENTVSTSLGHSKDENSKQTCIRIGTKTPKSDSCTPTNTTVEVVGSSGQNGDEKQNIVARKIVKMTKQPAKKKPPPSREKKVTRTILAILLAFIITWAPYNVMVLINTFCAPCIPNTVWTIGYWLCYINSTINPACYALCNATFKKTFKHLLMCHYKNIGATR
How it was run: as §1

M1 muscarinic receptor = target: T4, M1 muscarinic receptor (Homo sapiens, UniProt P11229); experiment: Functional mobilization of intracellular calcium (FLIPR) in CHO cells expressing M1; conditions: for EC50: CHO cells expressing M1, FLIPR calcium; for Emax: CHO, read-out: M1 Efficacy; for Emax / M1 Efficacy: 100% = maximum response obtained with the Carbachol control
T4 construct: expressed in transfected cells; host or cells: CHO (M1-CHO)
T4 sequence (P11229 1-460): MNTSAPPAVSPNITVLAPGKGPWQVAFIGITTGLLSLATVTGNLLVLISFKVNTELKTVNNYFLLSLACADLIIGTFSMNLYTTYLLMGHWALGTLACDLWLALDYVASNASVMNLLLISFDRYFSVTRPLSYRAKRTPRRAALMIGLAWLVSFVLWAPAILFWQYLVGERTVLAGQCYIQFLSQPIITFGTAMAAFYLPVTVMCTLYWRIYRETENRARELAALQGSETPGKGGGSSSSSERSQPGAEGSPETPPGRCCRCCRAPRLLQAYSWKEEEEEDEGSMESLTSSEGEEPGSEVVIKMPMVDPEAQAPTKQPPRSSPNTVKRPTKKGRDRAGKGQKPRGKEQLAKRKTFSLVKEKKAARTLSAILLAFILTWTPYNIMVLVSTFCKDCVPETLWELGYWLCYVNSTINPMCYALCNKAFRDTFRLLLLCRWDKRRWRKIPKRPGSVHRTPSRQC
How it was run: as §1

T1 sequence (P20309 whole entry): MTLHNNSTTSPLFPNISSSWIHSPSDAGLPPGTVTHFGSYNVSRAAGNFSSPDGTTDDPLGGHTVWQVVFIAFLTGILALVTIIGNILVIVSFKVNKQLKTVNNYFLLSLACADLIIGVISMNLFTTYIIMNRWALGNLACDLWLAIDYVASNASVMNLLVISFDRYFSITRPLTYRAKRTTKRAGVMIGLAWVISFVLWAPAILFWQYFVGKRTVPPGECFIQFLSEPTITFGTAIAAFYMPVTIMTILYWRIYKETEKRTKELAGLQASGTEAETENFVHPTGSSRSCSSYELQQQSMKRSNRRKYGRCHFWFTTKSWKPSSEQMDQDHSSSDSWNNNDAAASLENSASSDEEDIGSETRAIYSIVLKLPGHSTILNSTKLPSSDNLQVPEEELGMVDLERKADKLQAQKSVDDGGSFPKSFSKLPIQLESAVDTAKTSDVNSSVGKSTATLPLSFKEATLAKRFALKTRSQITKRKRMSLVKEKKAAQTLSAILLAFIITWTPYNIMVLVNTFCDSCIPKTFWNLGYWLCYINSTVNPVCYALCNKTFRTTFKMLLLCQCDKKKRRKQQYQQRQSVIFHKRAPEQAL

Row | Structure (SMILES) | EC50 (M3 muscarinic receptor) [µM] | Emax (M3 muscarinic receptor) [%] | EC50 (M4 muscarinic receptor) [µM] | Emax (M4 muscarinic receptor) [%] | EC50 (M2 muscarinic receptor) [µM] | Emax (M2 muscarinic receptor) [%] | EC50 (M1 muscarinic receptor) [µM] | Emax (M1 muscarinic receptor) [%] | M3 Efficacy (M3 muscarinic receptor) | M4 Efficacy (M4 muscarinic receptor) | M2 Efficacy (M2 muscarinic receptor) | M1 Efficacy (M1 muscarinic receptor)
1 | CC(=O)N1CCCC1C(=O)N[C@H]1CCC2(CCN(CCC(C)(C)C)CC2)c2ccccc21 (stereo partly drawn) [compound 60] | > 5 | < 25 | < 2 | 25 to 100 | > 5 | < 25 | < 2 | 25 to 100 |  |  |  | 
2 | CCC(=O)N[C@@H]1CCC2(CCN(CCC(C)(C)C)CC2)c2ccccc21 [compound 62] | > 5 | < 25 | < 2 | 25 to 100 | > 5 | < 25 | > 5 | < 25 |  |  |  | 
3 | CCOCC(=O)N[C@@H]1CCC2(CCN(CCC(C)(C)C)CC2)c2cc(F)ccc21 [compound 63] | > 5 | < 25 | < 2 | 25 to 100 | < 2 | < 25 | < 2 | 25 to 100 |  |  |  | 
4 | CC(=O)N[C@@H]1CCC2(CCN(CCC(C)(C)C)CC2)c2ccccc21 [compound 64] | > 5 | < 25 | < 2 | 25 to 100 | > 5 | < 25 | 2 to 5 | < 25 |  |  |  | 
5 | CC(C)(C)CCN1CCC2(CC[C@@H](NC(=O)Cc3cccnc3)c3ccc(F)cc32)CC1 [compound 65] | > 5 | < 25 | < 2 | 25 to 100 | 2 to 5 | < 25 | < 2 | 25 to 100 |  |  |  | 
6 | CC(=O)N[C@H]1CCC2(CCN(CC(C)(C)C)CC2)c2ccccc21 [compound 66] | > 5 | < 25 | < 2 | 25 to 100 | > 5 | 25 to 100 | < 2 | 25 to 100 |  |  |  | 
7 | CC(C)(C)CCN1CCC2(CC[C@H](NC(=O)C3CC(=O)N3)c3ccc(F)cc32)CC1 (stereo partly drawn) [compound 67] | > 5 | < 25 | < 2 | 25 to 100 | < 2 | 25 to 100 | < 2 | 25 to 100 |  |  |  | 
8 | CC(=O)N[C@H]1CCC2(CCN(CCC(C)CCC=C(C)C)CC2)c2ccccc21 (stereo partly drawn) [compound 68] | > 5 | < 25 | < 2 | 25 to 100 | < 2 | 25 to 100 | < 2 | > 100 |  |  |  | 
9 | CCn1cc(C(=O)N[C@H]2CCC3(CCN(CCC(C)(C)C)CC3)c3ccccc32)cn1 [compound 69] | > 5 |  | < 2 |  | > 5 |  | > 5 |  | + (efficacy was calculated to be less than 25%) | ++ (efficacy was calculated to be from 100% to 25%) | + (efficacy was calculated to be less than 25%) | + (efficacy was calculated to be less than 25%)
10 | CCOCC(=O)N[C@H]1CCC2(CCN(CCC(C)(C)C)CC2)c2ccccc21 [compound 70] | > 5 | < 25 | < 2 | 25 to 100 | < 2 | < 25 | < 2 | 25 to 100 |  |  |  | 
11 | CC(C)(C)CCN1CCC2(CC[C@H](NC(=O)CN3CCCCCC3=O)c3ccccc32)CC1 [compound 71] | > 5 | < 25 | < 2 | 25 to 100 | < 2 | 25 to 100 | < 2 | 25 to 100 |  |  |  | 
12 | CC(=O)N1CCCC[C@H]1C(=O)N[C@@H]1CCC2(CCN(CCC(C)(C)C)CC2)c2cc(F)ccc21 [compound 72] | > 5 | < 25 | < 2 | 25 to 100 | 2 to 5 | < 25 | 2 to 5 | 25 to 100 |  |  |  | 
13 | CCC(CC)CN1CCC2(CC[C@H](NC(C)=O)c3ccccc32)CC1 [compound 73] | > 5 | < 25 | < 2 | 25 to 100 | > 5 | < 25 | < 2 | 25 to 100 |  |  |  | 
14 | CC(C)(C)CCN1CCC2(CC[C@H](NC(=O)c3cccnc3)c3ccccc32)CC1 [compound 74] | > 5 |  | < 2 |  | < 2 |  | < 2 |  | + (efficacy was calculated to be less than 25%) | ++ (efficacy was calculated to be from 100% to 25%) | ++ (efficacy was calculated to be from 100% to 25%) | ++ (efficacy was calculated to be from 100% to 25%)
15 | CC(C)(C)CCN1CCC2(CC[C@@H](NC(=O)[C@@H]3CCC(=O)N3)c3ccc(F)cc32)CC1 [compound 75] | > 5 | < 25 | < 2 | 25 to 100 | 2 to 5 | < 25 | 2 to 5 | 25 to 100 |  |  |  | 
16 | CC(C)(C)CCN1CCC2(CC[C@@H](NC(=O)CN3CCCC3=O)c3ccc(F)cc32)CC1 [compound 76] | > 5 | < 25 | < 2 | 25 to 100 | < 2 | 25 to 100 | < 2 | 25 to 100 |  |  |  | 
17 | CCN(C(C)=O)[C@H]1CCC2(CCN(CCC(C)(C)C)CC2)c2cc(F)ccc21 [compound 77] | > 5 | < 25 | < 2 | 25 to 100 | 2 to 5 | < 25 | < 2 | 25 to 100 |  |  |  | 
18 | C[C@H](C(=O)N[C@@H]1CCC2(CCN(CCC(C)(C)C)CC2)c2cc(F)ccc21)N1CCCC1=O [compound 78] | > 5 | < 25 | < 2 | 25 to 100 | < 2 | 25 to 100 | < 2 | 25 to 100 |  |  |  | 
19 | CC(C)(C)CCN1CCC2(CC[C@H](NC(=O)Cc3cccnc3)c3ccc(F)cc32)CC1 [compound 79] | > 5 | < 25 | < 2 | 25 to 100 | < 2 | 25 to 100 | < 2 | 25 to 100 |  |  |  | 
20 | CC(C)CCN1CCC2(CC[C@H](NS(C)(=O)=O)c3ccccc32)CC1 [compound 80] | > 5 | < 25 | < 2 | 25 to 100 | > 5 | < 25 | < 2 | 25 to 100 |  |  |  | 
21 | CC(=O)N1CCC(C(=O)N[C@H]2CCC3(CCN(CCC(C)(C)C)CC3)c3cc(F)ccc32)CC1 [compound 81] | > 5 | < 25 | < 2 | 25 to 100 | > 5 | < 25 | 2 to 5 | 25 to 100 |  |  |  | 

Reference: patent US8003660B2, “Modulators of muscarinic receptors” (Vertex Pharmaceuticals Incorporated, priority 2006, dated 2011)
